In patent US20210038587A1, “METHODS AND COMPOSITIONS FOR TREATING NON-ERK MAPK PATHWAY INHIBITOR-RESISTANT CANCERS” (BIOMED VALLEY DISCOVERIES, INC., priority 2013, published 2021):

Columns and labels:
Assay type in all cases: cell-based
[1] = system: A375, MIAPaCa-2, HCT116, Colo205, HT-29, and AN3Ca cells; test: Reverse Phase Protein Analysis (RPPA), all six cell lines; conditions: 10 μM, 6 hours
Experimental: (§1) Control wells were treated with DMSO at 0.1% (v/v) for 6 hours prior to cell lysate generation. Samples were then analyzed using reverse-phase protein microarray technology (Theranostics Health).
(§2) Cell lines with common alterations in BRAF and RAS were assayed: BRAF^V600E mutant lines A375, Colo205, and HT29; KRAS^G12C-mutant cell line MIAPACa-2; KRAS^G13D-mutant cell line HCT116; and AN3Ca with atypical HRAS^F82L mutation. Changes in protein levels are shown as a percentage change from dimethyl sulfoxide (DMSO)-treated parental control (FIG. 32A and Table 23).

[2] = system: AN3Ca; test: Reverse Phase Protein Analysis (RPPA); conditions: % change from DMSO (matched cell line)
Experimental: as §1, §2

[3] = system: HT29; test: Reverse Phase Protein Analysis (RPPA); conditions: % change from DMSO (matched cell line)
Experimental: as §1, §2

Cn1nccc1Nc1nccc(-c2ccn([C@H](CO)c3ccc(Cl)c(F)c3)c(=O)c2)n1 [GDC-0994]
pERK1/2 (ERK1/2-T202, -Y204) [1]: markedly increased pERK1/2 | survival marker pBAD [1]: only modest inhibition of pBAD | Avg (4ebp1 T70) [2]: 11.28% | Avg (Akt S473) [2]: 82.37% | Avg (Akt) [2]: −26.04% | Avg (Bad S136) [2]: 0.71% | Avg (Bad S155) [2]: 17.31% | Avg (Bak) [2]: 7.33% | Avg (Bax) [2]: 23.83% | Avg (Bcl 2) [2]: 7.8% | Avg (Bcl2 S70) [2]: −0.65% | Avg (Bcl 2 T56) [2]: 1.23% | Avg (Bim) [2]: −11.63% | Avg (CREB S133) [2]: 5.03% | Avg (Caspase 3 CL D175) [2]: 1.55% | Avg (Caspase 7 Cl D198) [2]: −15.56% | Avg (Chk1) [2]: 9.43% | Avg (Chk1 S345) [2]: 15.46% | Avg (Cyclin D1) [2]: 0.34% | Avg (ERK 1 2) [2]: −2.87% | Avg (ERK 1 2 T202 Y204) [2]: 645.51% | Avg (MAK1 S360) [2]: 6.84% | Avg (Mcl1) [2]: −4.16% | Avg (Raptor S792) [2]: 4.85% | Avg (Raptor) [2]: −8.05% | Avg (Rictor) [2]: −9.21% | Avg (Stat1) [2]: 9.15% | Avg (Stat3) [2]: −13.05% | Avg (bad S112) [2]: 2.53% | Avg (c Fos) [2]: −0.63% | Avg (c Myc) [2]: 3.99% | Avg (mTOR S2448) [2]: −2.96% | Avg (mTOR S2481) [2]: 25.42% | Avg (mTOR) [2]: −2.85% | Avg (p70 S6 Kinase) [2]: −3.67% | Avg (p90 RSK S380) [2]: −29.44% | Avg(S6 Ribo Prot S235 236) [2]: −30.74% | Avg(S6 Ribo Prot S240 244) [2]: −23.47% | Avg(Tuberin TSC2 Y1571) [2]: 25.18% | Avg(p70 S6 Kinase S371 S394) [2]: 29.09% | Avg(p70 S6 Kinase T389 T412) [2]: 26.01% | Avg (4ebp1 T70) [3]: 1.95% | Avg (Akt S473) [3]: −10.5% | Avg (Akt) [3]: −10.01% | Avg (Bad S136) [3]: 2% | Avg (Bad S155) [3]: −6.7% | Avg (Bak) [3]: 3.56% | Avg (Bax) [3]: 1.1% | Avg (Bcl 2) [3]: 18.16% | Avg (Bcl2 S70) [3]: 10.59% | Avg (Bcl 2 T56) [3]: 1.61% | Avg (Bim) [3]: 7.74% | Avg (CREB S133) [3]: 9.54% | Avg (Caspase 3 CL D175) [3]: −3.44% | Avg (Caspase 7 Cl D198) [3]: −0.88% | Avg (Chk1) [3]: 5.68% | Avg (Chk1 S345) [3]: 6.88% | Avg (Cyclin D1) [3]: −35.69% | Avg (ERK 1 2) [3]: 4.66% | Avg (ERK 1 2 T202 Y204) [3]: 268.99% | Avg (MAK1 S360) [3]: −0.04% | Avg (Mcl1) [3]: 3.71% | Avg (Raptor S792) [3]: −1.75% | Avg (Raptor) [3]: −6.85% | Avg (Rictor) [3]: −10.62% | Avg (Stat1) [3]: 2.58% | Avg (Stat3) [3]: −3.69% | Avg (bad S112) [3]: −12.98% | Avg (c Fos) [3]: −12.92% | Avg (c Myc) [3]: 7.56% | Avg (mTOR S2448) [3]: −11.44% | Avg (mTOR S2481) [3]: 3.23% | Avg (mTOR) [3]: 10.45% | Avg (p70 S6 Kinase) [3]: −2.83% | Avg (p90 RSK S380) [3]: −30.59% | Avg(S6 Ribo Prot S235 236) [3]: −41.45% | Avg(S6 Ribo Prot S240 244) [3]: −21.74% | Avg(Tuberin TSC2 Y1571) [3]: 11.86% | Avg(p70 S6 Kinase S371 S394) [3]: −25.73% | Avg(p70 S6 Kinase T389 T412) [3]: −20.86%
